Test [1] concerns cathepsin B in human serum. Nature of the test: Electrochemical (ACV) proteolysis of peptide-Fc on Au MEA by diluted human serum, with and without spiked rhCB. In kind it is biochemical. On the procedure:
Electrochemical Experiments. Electrochemical experiments were performed on a specially designed electrochemical cell mounted on a large copper block for temperature control by circulating thermostatic silicone liquid through the internal channels. The thermal circulator (Julabo, Allentown, PA) was set to achieve a temperature of 38.6° C. Two buffer solutions, 0.5×PB (pH=7.4) and 25 mM MES (pH=5.0), were used. In some experiments, the rhCB was activated by incubation in 25 mM MES buffer (pH=5.0) containing 5 mM DTT for 15 min. About 10 uL activated cathepsin B solution was added to the electrochemical cell containing 815 uL buffer solution (i.e., 0.5×PB with pH=7.4) as the electrolyte. Fc signal on the Au surface was detected by alternating current voltammetry (ACV) with an AC frequency of 300 Hz and a voltage amplitude of 100 mV on a DC ramp from −0.45 V to 0.20 V vs. MSE. Electrochemical measurements were performed using an IVIUM n-Stat potentiostat (Eindhoven, The Netherlands), which allows measurement of up to ten independent working electrodes simultaneously versus a common MSE reference electrode and a common Pt coil counter electrode.
Electrochemical Detection of Cathepsin B Activity in Human Serum. To assess the activity of cathepsin B in HS, we compared the kinetic proteolysis curves of 5% HS in 0.5×PB with and without activation by the electrochemical method. The 5% HS concentration is slightly higher than the 2.5% used in ELISA measurements to ensure that a clear exponential decay can be observed in electrochemical experiments. To minimize errors, three Au MEA chips were prepared side-by-side for three sets of experiments, i.e., (i) non-activated 5% HS in 0.5×PB, (ii) activated 5% HS in 0.5×PB, and (iii) the blank 0.5×PB. […] Based on equation (2), the concentration of the active form of cathepsin B in non-activated and activated sample (equivalent to 100% HS) can be calculated by: […]
Electrochemical Assessment of Effective Cathepsin B Activity Spiked in Human Serum. […] The data were recorded over 8 channels of the peptide-Fc modified Au MEA simultaneously. […]

The next test deals with cathepsin B (Homo sapiens, UniProt P07858). Set-up: purchased R&D Systems Inc. (Minneapolis, MN). The conditions noted are these: previous finding; cited from earlier work.

Where no end group is shown, it is not given here. [ ]: non-standard residue; d: D form. The star is where a group is joined. aminomethylferrocene = [Fe+2].c1cc[c-](CN*)c1.c1cc[cH-]c1; Ava = NCCCCC(=O)O

On to “H2N-(CH2)4-CO-Pro-Leu-Ala-Phe-Val-Ala-NH-CH2-Fc ([Ava]PLAFVA-aminomethylferrocene) [Peptide H-15]”, for which the 1/τ entry in test [1] (activated 5% HS in 0.5×PB (DTT/MES), 8 channels) is “(33.2±3.0)×10^−4 s^−1”; in test [1] (non-activated 5% HS in 0.5×PB spiked with 0.40 nM naturally active cathepsin B (1.0 nM non-activated rhCB)), “(12.99±1.66)×10^−4 s^−1”; in test [1] (non-activated 5% HS in 0.5×PB spiked with 1.0 nM activated cathepsin B), “(68.4±7.53)×10^−4 s^−1”.
For “H2N-(CH2)4-CO-Pro-Leu-Arg-Phe-Gly-Ala-NH-CH2-Fc ([Ava]PLRFGA-aminomethylferrocene) [Peptide H-3]”, in the test with cathepsin B, the “cleavage site by cathepsin B (found previously)” value is “between the Gly-Ala residues and between the Phe-Gly residues”.

These data come from US12618835B2, “Multiplex microelectrode array for detection of proteases as biomarkers” (Kansas State University Research Foundation, priority 2021, dated 2026).
